From US9120768B2, “Compositions and methods for treatment of cystic fibrosis and diseases associated with aberrant protein cellular processing” (The Hospital for Sick Children, priority 2010, dated 2015)

Columns and labels:
TAK1 = TAK1 (Homo sapiens, UniProt O43318); details: competitive with ATP; cited from earlier work
ERK2 = ERK2 (Homo sapiens, UniProt P28482); details: cited from earlier work
inflammation = details: animal model, topical application; cited from earlier work
delF508-CFTR [1] = molecular target: T1, delF508-CFTR (Homo sapiens, UniProt P13569, DEL508-508); experiment: Cellomics YFP quenching assay; type: cell-based; design: expressed in transfected cells; host or cells: HEK293 MSR GripTite (293MSR-GT) cells, also stably expressing eYFP(H148Q/I152L); details: 10 μM, 48 hrs, 37° C., 293MSR-GT cells, stimulated with FIG; FIG. 1
T1 sequence (P13569 with tags, fused parts or gaps DEL508-508): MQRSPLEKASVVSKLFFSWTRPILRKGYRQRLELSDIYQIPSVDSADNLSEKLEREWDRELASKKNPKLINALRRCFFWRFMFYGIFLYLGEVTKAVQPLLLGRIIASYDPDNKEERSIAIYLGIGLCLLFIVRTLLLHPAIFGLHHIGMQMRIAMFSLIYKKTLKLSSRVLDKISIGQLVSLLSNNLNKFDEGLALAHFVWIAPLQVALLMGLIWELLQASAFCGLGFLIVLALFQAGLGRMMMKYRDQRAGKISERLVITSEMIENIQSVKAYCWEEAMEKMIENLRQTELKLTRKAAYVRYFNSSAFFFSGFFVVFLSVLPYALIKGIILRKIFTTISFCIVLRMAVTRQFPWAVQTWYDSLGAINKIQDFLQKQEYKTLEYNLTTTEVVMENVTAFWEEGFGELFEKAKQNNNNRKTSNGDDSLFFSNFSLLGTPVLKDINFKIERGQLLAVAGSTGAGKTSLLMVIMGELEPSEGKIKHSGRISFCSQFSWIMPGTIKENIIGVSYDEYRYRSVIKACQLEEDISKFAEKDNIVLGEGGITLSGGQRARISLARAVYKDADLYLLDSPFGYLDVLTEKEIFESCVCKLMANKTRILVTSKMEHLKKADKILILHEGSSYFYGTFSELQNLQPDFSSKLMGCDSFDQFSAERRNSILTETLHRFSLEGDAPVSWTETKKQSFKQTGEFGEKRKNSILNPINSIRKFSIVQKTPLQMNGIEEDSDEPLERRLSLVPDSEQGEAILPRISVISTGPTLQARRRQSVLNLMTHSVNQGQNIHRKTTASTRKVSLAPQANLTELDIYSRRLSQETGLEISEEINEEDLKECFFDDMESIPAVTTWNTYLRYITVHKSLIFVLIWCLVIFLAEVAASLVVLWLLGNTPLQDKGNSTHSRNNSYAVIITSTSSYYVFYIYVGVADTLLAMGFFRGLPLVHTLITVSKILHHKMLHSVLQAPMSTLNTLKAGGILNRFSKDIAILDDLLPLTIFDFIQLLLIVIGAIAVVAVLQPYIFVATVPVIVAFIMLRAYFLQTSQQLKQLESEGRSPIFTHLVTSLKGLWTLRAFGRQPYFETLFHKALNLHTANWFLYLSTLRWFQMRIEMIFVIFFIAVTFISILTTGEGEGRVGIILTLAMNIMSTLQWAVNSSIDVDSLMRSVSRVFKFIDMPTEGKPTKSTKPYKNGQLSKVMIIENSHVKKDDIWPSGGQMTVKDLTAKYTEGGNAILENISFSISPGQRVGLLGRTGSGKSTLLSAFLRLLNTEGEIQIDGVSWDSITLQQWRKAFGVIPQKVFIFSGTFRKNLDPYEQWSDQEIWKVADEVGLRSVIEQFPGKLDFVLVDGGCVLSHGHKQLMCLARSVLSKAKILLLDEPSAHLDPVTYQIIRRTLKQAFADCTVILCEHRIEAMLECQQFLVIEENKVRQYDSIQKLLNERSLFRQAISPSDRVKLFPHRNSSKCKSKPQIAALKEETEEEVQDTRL

delF508-CFTR [2] = molecular target: T1, delF508-CFTR; experiment: Immunoblotting for delF508-CFTR maturation (band C); type: cell-based; design: expressed in transfected cells; host or cells: HEK293 MSR GripTite (293MSR-GT) cells, also stably expressing eYFP(H148Q/I152L); details: 10 μM, 48 hrs, 37° C., 293MSR-GT cells, anti-CFTR immunoblot; FIG. 2
delF508-CFTR [3] = molecular target: T1, delF508-CFTR; experiment: Short circuit current (Ussing chamber) in primary human bronchial epithelial cells; type: cell-based; design: primary cultures of human bronchial epithelia (HBE) obtained from transplant patients homozygous for the delF508 mutation; host or cells: primary human bronchial epithelial (HBE) cells from delF508/delF508 lung transplant patients; details: 10 μM, 48 hrs, HBE cells of delF508/delF508 patients, versus vehicle alone; FIGS. 5-7
293MSR-GT cells = experiment: Sensitivity of 293MSR-GT cells toward compound; details: compound could not be tested by YFP quenching or immunoblotting

Sequence of TAK1 (O43318 whole entry): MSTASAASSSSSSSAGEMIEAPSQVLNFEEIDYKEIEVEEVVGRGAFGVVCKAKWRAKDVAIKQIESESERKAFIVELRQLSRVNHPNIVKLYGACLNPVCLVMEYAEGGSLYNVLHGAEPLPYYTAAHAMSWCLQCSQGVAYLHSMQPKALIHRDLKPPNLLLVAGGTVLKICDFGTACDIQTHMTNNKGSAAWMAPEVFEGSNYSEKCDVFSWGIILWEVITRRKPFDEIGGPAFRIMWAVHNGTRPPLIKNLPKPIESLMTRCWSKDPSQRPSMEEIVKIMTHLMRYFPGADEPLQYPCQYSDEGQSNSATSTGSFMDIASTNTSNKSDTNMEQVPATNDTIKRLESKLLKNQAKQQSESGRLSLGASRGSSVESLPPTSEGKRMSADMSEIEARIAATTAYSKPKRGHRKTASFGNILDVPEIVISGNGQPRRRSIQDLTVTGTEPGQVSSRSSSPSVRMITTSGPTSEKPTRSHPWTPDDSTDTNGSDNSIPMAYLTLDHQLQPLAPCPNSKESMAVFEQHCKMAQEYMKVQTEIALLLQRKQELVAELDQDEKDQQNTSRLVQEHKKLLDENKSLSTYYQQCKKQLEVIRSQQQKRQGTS
Sequence of TAK1 (Q15750 whole entry partner): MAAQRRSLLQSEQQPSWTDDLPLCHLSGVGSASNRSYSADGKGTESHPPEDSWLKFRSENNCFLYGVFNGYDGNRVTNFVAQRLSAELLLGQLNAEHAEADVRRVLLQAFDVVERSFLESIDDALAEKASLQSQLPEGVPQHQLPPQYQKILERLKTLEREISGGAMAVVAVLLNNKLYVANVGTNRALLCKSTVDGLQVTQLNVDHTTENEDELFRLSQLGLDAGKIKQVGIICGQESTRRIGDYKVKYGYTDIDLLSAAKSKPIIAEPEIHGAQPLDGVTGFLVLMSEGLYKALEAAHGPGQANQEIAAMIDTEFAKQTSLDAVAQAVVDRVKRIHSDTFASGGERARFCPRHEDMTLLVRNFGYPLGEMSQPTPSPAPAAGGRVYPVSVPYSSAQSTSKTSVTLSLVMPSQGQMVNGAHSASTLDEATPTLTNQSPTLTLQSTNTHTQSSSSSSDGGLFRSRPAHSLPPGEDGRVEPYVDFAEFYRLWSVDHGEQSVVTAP
Sequence of ERK2 (P28482 whole entry, species assumed): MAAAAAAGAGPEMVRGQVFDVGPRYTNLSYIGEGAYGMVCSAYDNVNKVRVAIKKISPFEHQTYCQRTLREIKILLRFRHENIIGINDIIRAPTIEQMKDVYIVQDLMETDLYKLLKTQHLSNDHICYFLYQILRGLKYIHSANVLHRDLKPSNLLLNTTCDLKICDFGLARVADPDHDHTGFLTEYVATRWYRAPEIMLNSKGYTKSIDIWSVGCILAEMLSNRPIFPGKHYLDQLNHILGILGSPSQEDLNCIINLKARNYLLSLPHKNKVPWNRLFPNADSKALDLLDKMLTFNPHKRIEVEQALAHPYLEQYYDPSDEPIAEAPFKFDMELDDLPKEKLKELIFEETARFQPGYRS

Row | delF508-CFTR chloride channel activity (short-circuit current) (delF508-CFTR [3]) | sensitivity of 293MSR-GT cells toward compound (293MSR-GT cells) | SMILES | TAK1 inhibition (TAK1) | ERK2 enzyme activity inhibition (ERK2) | prevention of inflammation (inflammation) | delF508-CFTR activity (fluorescence quenching due to Cl-/I- exchange) (delF508-CFTR [1]) | appearance of mature delF508-CFTR protein (band C) (delF508-CFTR [2])
1 | enhanced activity of the mutant CFTR | – | COc1cc(O)c2c(c1)/C=C/C[C@H](O)[C@H](O)C(=O)/C=C\C[C@H](C)OC2=O [(5Z)-7-oxozeaenol, (3S,5Z,8S,9S,11E)-3,4,9,10-tetrahydro-8,9,16-trihydroxy-14-methoxy-3-methyl-1H-2-benzoxacyclotetradecin-1,7(8H)-dione] | irreversibly inhibits TAK1 | inhibit ERK2 enzyme activity | effectively prevent inflammation in an animal model | restores delF508-CFTR activity to a level that is similar to that obtained with corr-4-a | led to the appearance of the mature band C, similar to that seen with corr-4-a
2 | enhanced activity of the mutant CFTR | – | Cc1c[nH]c(/C=C2\C(=O)Nc3ccccc32)c1CCC(=O)O [SU5402, 3-[4-methyl-2-[(Z)-(2-oxo-1H-indol-3-ylidene)methyl]-1H-pyrrol-3-yl]propanoic acid] | – | – | – | restores delF508-CFTR activity to a level that is similar to that obtained with corr-4-a | led to the appearance of the mature band C, similar to that seen with corr-4-a
3 | enhanced activity of the mutant CFTR | increased sensitivity | Cc1[nH]c(/C=C2\C(=O)Nc3ccccc32)c(C)c1CCC(=O)O [SU6668, 3-[2,4-dimethyl-5-[(Z)-(2-oxo-1H-indol-3-ylidene)methyl]-1H-pyrrol-3-yl]propanoic acid] | – | – | – | – | –
